The results in this text go back to ChEMBL document CHEMBL1821708, “Piperazinyl quinolines as chemosensitizers to increase fluconazole susceptibility of Candida albicans clinical isolates” (Bioorg Med Chem Lett, 2011).

≈ marks a conversion by molar mass, not a printed value.

The subject of data set [1] is Candida albicans. Put plainly: Growth inhibition of Candida albicans isolate CaCi-8 assessed as relative fungal growth in presence of Fluconazole after 48 hrs by Almar blue fluorometry. It is filed as functional, organism-based. The conditions noted are these: isolate CaCi-8, 48 h.
Data set [2] in a line: Aqueous solubility of the compound in phosphate buffered saline. It is filed as physicochemical.
In data set [3] the test system is Candida albicans. The experiment in a line: Growth inhibition of Candida albicans isolate CaCi-2 assessed as relative fungal growth in presence of Fluconazole after 48 hrs by Almar blue fluorometry. Format: functional, organism-based. To be noted: isolate CaCi-2, 48 h.
Data set [4] has as its system Candida albicans. The experiment in a line: Antifungal activity against Candida albicans CaCi-2 clinical isolate. It is filed as functional.
Data set [5] concerns Candida albicans. The experiment in a line: Antifungal activity against Candida albicans CaCi-8 clinical isolate. It is filed as functional.
Data set [6] has as its system Candida albicans. The experiment in a line: Growth inhibition of Candida albicans isolate CaCi-8 at 1 uM after 48 hrs by Almar blue fluorometry in presence of Fluconazole. It is filed as functional. The conditions noted are these: isolate CaCi-8, 48 h, read-out: GI.
The nature of data set [7]: Inhibition of calcineurin signaling pathway in Candida albicans.
In data set [8] the test system is Candida albicans. The experiment in a line: Growth inhibition of Candida albicans isolate CaCi-2 at 1 uM after 48 hrs by Almar blue fluorimetry in presence of fluconazole. It is filed as functional. To be noted: isolate CaCi-2, 48 h, read-out: GI.
The nature of data set [9]: Inhibition of HSP90 signaling pathway in Candida albicans.

As for `O=C(c1ccc(Cl)nc1)N1CCN(c2ccnc3cc(Cl)ccc23)CC1`, the figures for the IC50 in the data set on Candida albicans [1] and with Candida albicans [3] were 10.9 µM and 6.7 µM, respectively. Besides, in data set [2] (buffer), the solubility entry is recorded as “soluble”.

Take `Cc1ccc(C(=O)N2CCN(c3ccnc4cc(Cl)ccc34)CC2)cc1`: the half-maximal inhibitory concentration (IC50) with Candida albicans [1] stood at 3.1 µM; in the data set with Candida albicans [3] it was 2.3 µM.

For `O=C(c1ccc(Cl)cc1)N1CCN(c2ccncc2)CC1`, the figures for the IC50 in the data set with Candida albicans [1] and in the data set with Candida albicans [3] were greater than 26 µM and 7.3 µM, respectively.

As for `O=C(c1csc2ccccc12)N1CCN(c2ccnc3cc(Cl)ccc23)CC1`, the IC50 was 4 µM in the data set with Candida albicans [1] and 1.9 µM in the data set with Candida albicans [3]. Further, the solubility entry in data set [2] (buffer) is given as “soluble”.

On to `O=C(c1ccccc1Cl)N1CCN(c2ccnc3cc(Cl)ccc23)CC1`, for which the IC50 with Candida albicans [1] was found to be 14.1 µM; with Candida albicans [3] it was 7.3 µM.

`Cc1cc(N2CCN(C(=O)c3ccc(Cl)cc3)CC2)c2ccccc2n1`: the values for the IC50 in the data set on Candida albicans [1] and in the data set on Candida albicans [3] were greater than 26 µM and 7.3 µM, respectively.

For `O=C(C1CCCCC1)N1CCN(c2ccnc3cc(Cl)ccc23)CC1`, the IC50 with Candida albicans [1] was found to be 4 µM; in the data set on Candida albicans [3], 1.7 µM.

As for `COc1ccc2c(N3CCN(C(=O)c4ccc(Cl)cc4)CC3)ccnc2c1`, the values for the IC50 in the data set with Candida albicans [1] and in the data set with Candida albicans [3] were 13.7 µM and 4.8 µM, respectively.

Consider `O=C(c1ccc(Cl)cn1)N1CCN(c2ccnc3cc(Cl)ccc23)CC1`, for which the IC50 in the data set with Candida albicans [1] is 4.1 µM; with Candida albicans [3] it was 4.9 µM. The solubility entry in [2] (buffer) is reported as “soluble”.

Consider `O=C(c1ccc(Cl)cc1)N1CCN(c2ccc(Cl)cc2)CC1`, for which the IC50 with Candida albicans [1] came out at 19 µM; in the data set on Candida albicans [3], 8.7 µM.

In the case of `O=C(c1ccc(Cl)cc1)N1CCN(c2nccs2)CC1`, the IC50 was found to be 18.9 µM in the data set on Candida albicans [1] and 6.9 µM in the data set on Candida albicans [3].

Regarding `Cn1ccnc1N1CCN(C(=O)c2ccc(Cl)cc2)CC1`, the IC50 was greater than 26 µM in the data set on Candida albicans [1] and 6.2 µM with Candida albicans [3].

As to `O=C(c1ccc(Cl)c(Cl)c1)N1CCN(c2ccnc3cc(Cl)ccc23)CC1`, the IC50 in the data set on Candida albicans [1] is 2.1 µM; with Candida albicans [3] it was 1 µM.

Take `O=C(c1ccc(Cl)cc1)N1CCN(c2nc3ccccc3s2)CC1`: the IC50 with Candida albicans [1] was 10.8 µM; in the data set with Candida albicans [3] it was 5.5 µM.

Turning to `O=C(c1ccc(Cl)cc1)N1CCN(c2ccnc3ccccc23)CC1`, the IC50 in the data set on Candida albicans [1] was 14.7 µM; in the data set on Candida albicans [3], 5.7 µM.

For `O=C(c1ccc(Cl)cc1)N1CCN(c2ncnc3ccccc23)CC1`, the IC50 in the data set on Candida albicans [1] turned out to be 11 µM; in the data set with Candida albicans [3], 4.8 µM.

With `O=C(c1cccc(Cl)c1)N1CCN(c2ccnc3cc(Cl)ccc23)CC1`, the results for the IC50 with Candida albicans [1] and with Candida albicans [3] were 7.8 µM and 4.4 µM, respectively.

With `O=C(c1ccc(Cl)cc1)N1CCN(c2ncccn2)CC1`, the IC50 is 18.1 µM in the data set with Candida albicans [1] and 7.1 µM in the data set on Candida albicans [3].

Consider `COc1ccc(C(=O)N2CCN(c3ccnc4cc(Cl)ccc34)CC2)cc1`, for which the IC50 is 16.8 µM in the data set on Candida albicans [1] and 5.3 µM with Candida albicans [3].

`O=C(c1ccc(Cl)cc1)N1CCN(c2cccnc2)CC1`: the IC50 is greater than 26 µM in the data set on Candida albicans [1] and 7.3 µM with Candida albicans [3].

For the compound `Cc1ccc(N2CCN(C(=O)c3ccc(Cl)cc3)CC2)nn1`, the values for the IC50 with Candida albicans [1] and in the data set with Candida albicans [3] were 20.6 µM and 8.5 µM, respectively.

Regarding `O=C(c1ccc(Cl)cc1)N1CCN(c2cnccn2)CC1`, the IC50 in the data set on Candida albicans [1] came to 22.2 µM; with Candida albicans [3], 9 µM.

For `O=C(c1ccc(Cl)cc1)N1CCN(c2ccnc3ccc(Cl)cc23)CC1`, the IC50 with Candida albicans [1] stood at 6.3 µM; in the data set with Candida albicans [3], 2.4 µM.

On to `O=C(c1ccc(Cl)cc1)N1CCN(c2ccccn2)CC1`, for which the IC50 in the data set on Candida albicans [1] was 24 µM; in the data set with Candida albicans [3], greater than 10 µM.

As to `CCCC(=O)N1CCN(c2ccnc3cc(Cl)ccc23)CC1`, the IC50 in the data set with Candida albicans [1] stood at 15 µM; in the data set with Candida albicans [3], 6.3 µM.

In the case of `OC(Cn1cncn1)(Cn1cncn1)c1ccc(F)cc1F` [FLUCONAZOLE], the values for the MIC against Candida albicans [4] and in the data set on Candida albicans [5] were 6.5 µM (≈ 1.99 µg/mL) and 26 µM (≈ 7.96 µg/mL), respectively.

Regarding `CC(C)C(=O)N1CCN(c2ccnc3cc(Cl)ccc23)CC1`, the IC50 is greater than 26 µM in the data set on Candida albicans [1] and 7.2 µM in the data set with Candida albicans [3].

Consider `O=C(c1ccc(Cl)cc1)N1CCN(c2ccnc3cc(Cl)ccc23)CC1`, for which the inhibition of growth at 1 µM in the data set on Candida albicans [6] and in the data set on Candida albicans [8] was 97% in each case. Besides, the half-inhibitory concentration (IC50) in the data set with Candida albicans [1] is 1.3 µM; in data set [7], greater than 26 µM; in the data set with Candida albicans [3] it was 0.7 µM; in data set [9], greater than 26 µM. Further, in data set [2] (phosphate buffered saline, read-out: solubility), the solubility was less than 5 µM.

Take `O=C(c1ccc(F)cc1)N1CCN(c2ccnc3cc(Cl)ccc23)CC1`: the results for the IC50 in the data set with Candida albicans [1] and in the data set on Candida albicans [3] were 4.2 µM and 3.6 µM, respectively.

Turning to `O=C(Nc1ccc(Cl)cc1)N1CCN(c2ccnc3cc(Cl)ccc23)CC1`, the 50% inhibitory concentration (IC50) in the data set with Candida albicans [1] was 2.3 µM; with Candida albicans [3], 4.2 µM.

On to `O=C(c1ccccc1)N1CCN(c2ccnc3cc(Cl)ccc23)CC1`, for which the values for the IC50 in the data set with Candida albicans [1] and in the data set with Candida albicans [3] were 6.1 µM and 4.4 µM, respectively.

Take `O=C(C1CCCC1)N1CCN(c2ccnc3cc(Cl)ccc23)CC1`: the IC50 with Candida albicans [1] is 5.3 µM; in the data set on Candida albicans [3], 3.6 µM.

Broadly, the IC50 is the concentration that inhibits the measured activity by half. As usually defined, the solubility is the dissolved amount per volume that the medium holds. The MIC is the least concentration at which growth counts as inhibited. A high value points to a need for much substance.
